Where a SMILES comes first, the peptide text is derived from it.
Columns and labels:
[1] = molecular target: T1, human VPS4 MIT domain (residues 1–84) (Homo sapiens, UniProt Q9UN37); assay: Isothermal titration calorimetry, titrant into VPS4A MIT domain; type: binding; settings: ITC, 25°C; for -TΔS / N (stoichiometry) / ΔG / ΔH: n = 2–4
T1 construct: The MIT domain (residues 1–84) of human VPS4A (UniProt Q9UN37); GST with human rhinovirus 3C cleavage site (N, cleaved yes); made in house; host or cells: Escherichia coli T7 Express lysY/Iq
T1 sequence (Q9UN37 1-84): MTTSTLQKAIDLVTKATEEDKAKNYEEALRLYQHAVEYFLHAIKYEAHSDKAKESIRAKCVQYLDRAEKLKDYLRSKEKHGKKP
Method: Proteins were expressed in Escherichia coli T7 Express lysY/I^q cells (New England Biolabs) in 2×TY medium at 37°C to an OD600 of 0.8–1.2 before inducing protein expression by addition of 0.4 mM isopropyl β-D-thiogalactopyranoside (IPTG). Expression of GST-tagged pUL71 truncations was induced at 37°C for 3 h, whereas expression of GST-VPS4A MIT domain was induced at 22°C for 16 h. Cells were resuspended at 4°C in GSH lysis buffer (20 mM Tris pH 7.5, 300 mM NaCl, 0.5 mM MgCl2, 1.4 mM β-mercaptoethanol, 0.05% TWEEN-20) supplemented with 200–400 U bovine DNase I (Merck) and 200 μL EDTA-free protease inhibitor cocktail (Merck) before lysis using a TS series cell disruptor (Constant Systems) at 24 kpsi. Lysates were cleared by centrifugation (40,000×g, 30 min, 4°C) and incubated with glutathione Sepharose 4B (Cytiva) for 1 h at 4°C before extensive washing (≥ 20 column volumes) with GSH wash buffer (20 mM Tris pH 7.5, 300 mM NaCl, 1 mM DTT) and elution using wash buffer supplemented with 25 mM reduced L-glutathione. GST-tagged pUL71 truncations were subjected to size-exclusion chromatography (SEC) using a Superdex 200 16/600 column (Cytiva) equilibrated in GSH wash buffer. For GST-VPS4A MIT domain, the GST tag was removed by supplementing the pooled SEC fractions containing the protein of interest with 0.5 mM EDTA and incubating overnight at 4°C with 50 μg of GST-tagged human rhinovirus 3C protease. Free GST and uncleaved GST-VPS4A MIT domain were captured using glutathione Sepharose and the cleaved complex was subjected to SEC using an S75 10/300 GL column (Cytiva) equilibrated in 50 mM HEPES pH 8, 100 mM NaCl, 0.5 mM Tris(2-carboxyethyl)phosphine (TCEP).
Where necessary, proteins were exchanged into ITC buffer (50 mM HEPES pH 8, 100 mM NaCl, 0.5 mM TCEP) by SEC using Superdex 200 (GST-tagged titrants) or 75 (VPS4 MIT domain) 10/300 GL columns (Cytiva), or by extensive dialysis using tubing with a 3.5 kDa molecular weight cut-off (Pierce). Protein concentrations were estimated from A280 using extinction coefficients calculated from the protein sequence. Peptides encoding residues 166–181 of human CHMP6 or various truncations of HCMV pUL71 were purchased from Genscript at >95% purity and the dry peptides were resuspended in ITC buffer to the desired concentration. ITC experiments were performed at 25°C using an MicroCal PEAQ-ITC automated calorimeter (Malvern Panalytical). Titrants (GST-pUL71, GST-CHMP6 or peptides) were titrated into VPS4A MIT domain using either 19×2 μL or 12×3 μL injections (S1 Table). Data were analysed using the MicroCal PEAQ-ITC analysis software (Malvern Panalytical) and fitted using a one-site binding model.
S1 Table. Thermodynamic properties of the interactions with VPS4 MIT domain. As quantitated by isothermal titration calorimetry (ITC). Data for independent experiments are shown. For all, the cell contained human VPS4 MIT domain (residues 1-84) and pUL71 is from HCMV unless stated otherwise. –, no binding detected.

[2] = molecular target: VPS4A MIT domain (residues 1–84) (human) (UniProt Q9UN37); assay: ITC; titrants (GST-pUL71, GST-CHMP6 or peptides) titrated into VPS4A MIT domain in the cell; 25°C; 50 mM HEPES pH 8, 100 mM NaCl, 0.5 mM TCEP; 19×2 μL or 12×3 μL injections; one-site binding model
yeast Vps4 = settings: reported; cited from earlier work

With CC[C@H](C)[C@H](NC(=O)[C@@H](N)CCC(=O)O)C(=O)N[C@@H](CC(=O)O)C(=O)N1CCC[C@H]1C(=O)N[C@@H](CC(C)C)C(=O)N[C@@H](CC(C)C)C(=O)N[C@@H](Cc1c[nH]cn1)C(=O)N[C@@H](CCC(N)=O)C(=O)N[C@@H](CCC(=O)O)C(=O)N[C@H](C(=O)NCC(=O)N[C@@H](CC(C)C)C(=O)N[C@@H](Cc1ccc(O)cc1)C(=O)N[C@@H](CCC(N)=O)C(=O)N[C@@H](C)C(=O)N[C@@H](CC(C)C)C(=O)N1CCC[C@H]1C(=O)N[C@@H](CC(N)=O)C(=O)N[C@@H](C)C(=O)N[C@H](C(=O)N[C@H](C(=O)N[C@@H](CCC(=O)O)C(=O)N[C@@H](C)C(=O)N1CCC[C@H]1C(=O)N[C@@H](CO)C(=O)N[C@@H](CCC(=O)O)C(=O)O)[C@@H](C)O)C(C)C)[C@@H](C)O [HHV6 pUL71 peptide] (H-EIDPLLHQETGLYQALPNAVTEAPSE-OH; N-terminus and C-terminus assumed) the “-TΔS” value ([1]; pH 8, mean ± SD) was 1.01 ± 1.62 kcal/mol, the “N (stoichiometry)” value ([1]; pH 8, mean ± SD) was 1.18 ± 0.03 and the ΔG ([1]; pH 8, mean ± SD) was -6.16 ± 0.11 kcal/mol. The ΔH ([1]; pH 8, mean ± SD) was -7.17 ± 1.52 kcal/mol, the “-T∆S” value ([1]; replicate 1, pH 8) was -0.117 kcal/mol and the “N (sites)” value ([1]; replicate 1, pH 8) was 1.16. For the same molecule, the “∆G” value ([1]; replicate 1, pH 8) was -6.26 kcal/mol, the “∆H” value ([1]; replicate 1, pH 8) was -6.14 kcal/mol and the “-T∆S” value ([1]; replicate 2, pH 8) was 0.27 kcal/mol. For the same molecule, the “N (sites)” value ([1]; replicate 2, pH 8) was 1.22, the “∆G” value ([1]; replicate 2, pH 8) was -6.18 kcal/mol and the “∆H” value ([1]; replicate 2, pH 8) was -6.45 kcal/mol. For the same molecule, the “-T∆S” value ([1]; replicate 3, pH 8) was 2.87 kcal/mol, the “N (sites)” value ([1]; replicate 3, pH 8) was 1.17 and the “∆G” value ([1]; replicate 3, pH 8) was -6.04 kcal/mol. For the same molecule, the “∆H” value ([1]; replicate 3, pH 8) was -8.91 kcal/mol.

“GST-pUL71 (300–325) (domain or fragment)” showed a Kd [2] of 2.25 µM, a dH [2] of -6.66 kcal/mol and a stoichiometry N [2] of 1.22.

With CC[C@H](C)[C@H](NC(=O)[C@H](CCC(N)=O)NC(=O)[C@@H](N)CCC(=O)O)C(=O)N[C@@H](CCC(=O)O)C(=O)N[C@@H](CC(C)C)C(=O)N1CCC[C@H]1C(=O)N[C@@H](CCC(=O)O)C(=O)N[C@H](C(=O)N1CCC[C@H]1C(=O)N[C@@H](CO)C(=O)N[C@@H](CCC(=O)O)C(=O)N1CCC[C@H]1C(=O)N[C@@H](CC(C)C)C(=O)N1CCC[C@H]1C(=O)N[C@@H](CCC(=O)O)C(=O)N[C@@H](CCCCN)C(=O)O)C(C)C [CHMP6 peptide] (H-EQIELPEVPSEPLPEK-OH; N-terminus and C-terminus assumed) the “-TΔS” value ([1]; pH 8, mean ± SD) was -5.52 ± 0.58 kcal/mol, the “N (stoichiometry)” value ([1]; pH 8, mean ± SD) was 1.02 ± 0.17 and the ΔG ([1]; pH 8, mean ± SD) was -6.85 ± 0.38 kcal/mol. For the same molecule, the ΔH ([1]; pH 8, mean ± SD) was -1.33 ± 0.51 kcal/mol, the “-T∆S” value ([1]; replicate 1, pH 8) was -6.36 kcal/mol and the “N (sites)” value ([1]; replicate 1, pH 8) was 1. The “∆G” value ([1]; replicate 1, pH 8) was -7.2 kcal/mol, the “∆H” value ([1]; replicate 1, pH 8) was -0.844 kcal/mol and the “-T∆S” value ([1]; replicate 2, pH 8) was -5.11 kcal/mol. The “N (sites)” value ([1]; replicate 2, pH 8) was 0.79, the “∆G” value ([1]; replicate 2, pH 8) was -7.15 kcal/mol and the “∆H” value ([1]; replicate 2, pH 8) was -2.04 kcal/mol. The “-T∆S” value ([1]; replicate 3, pH 8) was -5.14 kcal/mol, the “N (sites)” value ([1]; replicate 3, pH 8) was 1.1 and the “∆G” value ([1]; replicate 3, pH 8) was -6.46 kcal/mol. The “∆H” value ([1]; replicate 3, pH 8) was -1.32 kcal/mol, the “-T∆S” value ([1]; replicate 4, pH 8) was -5.46 kcal/mol and the “N (sites)” value ([1]; replicate 4, pH 8) was 1.17. The “∆G” value ([1]; replicate 4, pH 8) was -6.57 kcal/mol and the “∆H” value ([1]; replicate 4, pH 8) was -1.1 kcal/mol.

Molecule pUL71 (300–325) peptide has a dH [2] of -6.22 kcal/mol and a stoichiometry N [2] of 1.38.

“GST-pUL71 (283–336) (domain or fragment)” showed a Kd [2] of 3.02 µM, a dH [2] of -10.1 kcal/mol and a stoichiometry N [2] of 0.91.

CC[C@H](C)[C@H](NC(=O)[C@H](CCC(=O)O)NC(=O)[C@H](CCCNC(=N)N)NC(=O)[C@H](CCC(=O)O)NC(=O)[C@H](Cc1c[nH]cn1)NC(=O)[C@H](CC(N)=O)NC(=O)[C@@H](NC(=O)[C@@H]1CCCN1)[C@@H](C)O)C(=O)N[C@@H](CC(C)C)C(=O)N[C@@H](CC(=O)O)C(=O)N[C@@H](CC(C)C)C(=O)N[C@@H](CCSC)C(=O)N[C@@H](CCCNC(=N)N)C(=O)N[C@@H](Cc1c[nH]cn1)C(=O)N[C@@H](CO)C(=O)N1CCC[C@H]1C(=O)N[C@@H](CC(=O)O)C(=O)N[C@H](C(=O)N1CCC[C@H]1C(=O)N[C@@H](CCCNC(=N)N)C(=O)N[C@@H](CCC(=O)O)C(=O)N[C@@H](C)C(=O)N[C@H](C(=O)N[C@@H](CCSC)C(=O)N[C@@H](CO)C(=O)N1CCC[C@H]1C(=O)O)C(C)C)C(C)C [pUL71 (300–325) peptide] (H-PTNHEREILDLMRHSPDVPREAVMSP-OH) showed a Kd ([1]; 50 mM HEPES pH 8, 100 mM NaCl, 0.5 mM TCEP, one-site model, mean ± SD, n = 2–4 independent experiments) of 5.59 ± 0.34 µM.

Work on “HHV6 pU44 vMIM2 peptide (residues 174–199) (from UniProt A0A140AK71 174-199)” yielded a Kd [2] of 30.9 µM, a dH [2] of -7.17 kcal/mol and a stoichiometry N [2] of 1.18.

In the case of “GST-CHMP6: GST-tagged CHMP6 MIM2 motif (residues 168–181)”, the “-TΔS” value ([1]; pH 8, mean ± SD) is reported as -4.81 ± 0.62 kcal/mol, the ΔG ([1]; pH 8, mean ± SD) is reported as -7.18 ± 0.12 kcal/mol and the “-T∆S” value ([1]; replicate 1, pH 8) is reported as -5.25 kcal/mol. For the same molecule, the Kd ([1]; replicate 1, pH 8) was 4.76 µM, the “N (sites)” value ([1]; replicate 1, pH 8) was 0.786 and the “∆G” value ([1]; replicate 1, pH 8) was -7.26 kcal/mol. For the same molecule, the “∆H” value ([1]; replicate 1, pH 8) was -2.02 kcal/mol, the “-T∆S” value ([1]; replicate 2, pH 8) was -4.37 kcal/mol and the Kd ([1]; replicate 2, pH 8) was 6.32 µM. For the same molecule, the “N (sites)” value ([1]; replicate 2, pH 8) was 0.894, the “∆G” value ([1]; replicate 2, pH 8) was -7.09 kcal/mol and the “∆H” value ([1]; replicate 2, pH 8) was -2.72 kcal/mol.

With “CHMP6 MIM2 peptide (from UniProt Q96FZ7 166-181)” the Kd [2] was 11.2 µM, the dH [2] was -1.33 kcal/mol and the stoichiometry N [2] was 1.02.

Work on GST-pUL71(283–361) (domain or fragment) yielded a Kd [2] of 2.84 µM, a dH [2] of -9.05 kcal/mol and a stoichiometry N [2] of 1.

In the case of “GST-pUL71 (300–361) (domain or fragment)”, the Kd [2] is reported as 2.98 µM, the dH [2] is reported as -10.1 kcal/mol and the stoichiometry N [2] is reported as 0.87.

B1: Vfa1: yeast protein Vfa1 that is proposed to positively regulate Vps4 activity (protein, UniProt P40080 1-203, looked up)
VPS4-associated protein 1: MINEYVARKVALKDMQPCAICSKPSTTVLYNASGPDWLYTCEIHLQDNPQFVIPLYSTEYNEAVAQLKLVKGKMDSLTSAQTQLGSWDGWVTKIFSKKEKETNNSKDPDPTTTDSTDTSPQAKNDAEILSETKKQYSKILDKVTELQRKNRKYELAKIMFESRLLRKRTEQVNRERYLKEQENYSNTDPEELLRKHVFPSVPK
In the case of B1, the Kd (yeast Vps4) is given as 1.8 µM and the “fold tighter binding to Vps4 than Vps20” value (yeast Vps4) is given as “approximately 100 fold”.

— article PMC11218997, “Human cytomegalovirus deploys molecular mimicry to recruit VPS4A to sites of virus assembly” (PLOS Pathogens, 2024)
